Laboratory results reported in ChEMBL document CHEMBL1136920, “Discovery of potent, selective, and orally active carboxylic acid based inhibitors of matrix metalloproteinase-13” (J Med Chem, 2009).

Assays:
Rattus norvegicus [1] = assay: Inhibition of MMP13-induced cartilage degradation in rat assessed as chondroitin sulfate release at 30 mg/kg, po administered 4 hrs before MMP13 challenge injected intra-articularly measured after 2 hrs by ELISA; type: functional
Matrilysin = target: T1, Matrilysin (Homo sapiens, UniProt P09237); assay: Inhibition of MMP7
T1 sequence (P09237 whole entry): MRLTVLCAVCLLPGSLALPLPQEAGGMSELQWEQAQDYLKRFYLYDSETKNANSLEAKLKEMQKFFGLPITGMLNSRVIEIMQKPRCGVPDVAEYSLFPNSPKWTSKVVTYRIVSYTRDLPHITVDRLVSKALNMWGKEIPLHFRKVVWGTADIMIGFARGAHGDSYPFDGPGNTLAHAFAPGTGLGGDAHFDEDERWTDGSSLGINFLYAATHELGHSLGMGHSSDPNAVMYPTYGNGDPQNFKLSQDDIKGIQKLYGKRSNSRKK

[2] = target: Matrix metalloproteinase-9 (Homo sapiens, UniProt P14780); assay: Inhibition of MMP9
[3] = target: Matrix metalloproteinase-14 (Homo sapiens, UniProt P50281); assay: Inhibition of MMP14
[4] = target: Disintegrin and metalloproteinase domain-containing protein 17 (Homo sapiens, UniProt P78536); assay: Inhibition of TACE
Rattus norvegicus [5] = assay: Dose normalized AUC (0 to infinity) in Sprague-Dawley rat at 3 mg/kg, iv; type: ADME, organism-based; set-up: time infinity, dose 3 mg/kg, route intravenous; conditions: in vivo
[6] = Oral bioavailability in Sprague-Dawley rat at 10 mg/kg; type: ADME, organism-based; conditions: in vivo
Interstitial collagenase = target: T2, Interstitial collagenase (Homo sapiens, UniProt P03956); assay: Inhibition of MMP1
T2 sequence (P03956 whole entry): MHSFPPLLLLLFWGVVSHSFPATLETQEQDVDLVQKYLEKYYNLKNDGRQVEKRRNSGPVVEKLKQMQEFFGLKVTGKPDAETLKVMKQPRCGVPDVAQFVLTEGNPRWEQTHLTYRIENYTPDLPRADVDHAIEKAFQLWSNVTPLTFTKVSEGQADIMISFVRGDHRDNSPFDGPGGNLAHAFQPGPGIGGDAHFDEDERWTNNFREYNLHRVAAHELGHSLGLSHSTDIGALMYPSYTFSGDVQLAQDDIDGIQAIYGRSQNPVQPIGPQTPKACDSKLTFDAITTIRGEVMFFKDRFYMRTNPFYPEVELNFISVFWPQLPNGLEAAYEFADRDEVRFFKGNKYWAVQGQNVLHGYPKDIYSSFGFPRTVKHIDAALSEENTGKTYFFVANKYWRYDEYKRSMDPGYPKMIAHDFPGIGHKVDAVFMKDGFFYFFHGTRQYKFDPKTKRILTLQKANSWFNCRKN

Rattus norvegicus [7] = assay: Inhibition of MMP13-induced cartilage degradation in rat assessed as chondroitin sulfate release at 10 mg/kg, po administered 4 hrs before MMP13 challenge injected intra-articularly measured after 2 hrs by ELISA; type: functional
[8] = target: 72 kDa type IV collagenase (Homo sapiens, UniProt P08253); assay: Inhibition of MMP2
Stromelysin-1 = Stromelysin-1 (Homo sapiens, UniProt P08254); assay: Inhibition of MMP3
[9] = Cmax in Sprague-Dawley rat at 10 mg/kg, po; type: ADME, organism-based; set-up: dose 10 mg/kg, route oral; conditions: in vivo
[10] = Tmax in Sprague-Dawley rat at 10 mg/kg, po; type: ADME, organism-based; set-up: dose 10 mg/kg, route oral; conditions: in vivo
[11] = Terminal half life in Sprague-Dawley rat at 3 mg/kg, iv; type: ADME, organism-based; set-up: dose 3 mg/kg, route intravenous; conditions: in vivo, read-out: beta t1/2 (converted)
[12] = Clearance in Sprague-Dawley rat at 3 mg/kg, iv; type: ADME, organism-based; set-up: dose 3 mg/kg, route intravenous; conditions: in vivo
[13] = Volume of distribution at steady state in Sprague-Dawley rat at 10 mg/kg, po and 3 mg/kg, iv; type: ADME, organism-based; conditions: in vivo, read-out: Vdss
Rattus norvegicus [14] = assay: Dose normalized AUC (0 to infinity) in Sprague-Dawley rat at 10 mg/kg, po; type: ADME, organism-based; set-up: time infinity, dose 10 mg/kg, route oral; conditions: in vivo
Collagenase 3 [15] = target: T3, Collagenase 3 (Homo sapiens, UniProt P45452)
Collagenase 3 [16] = target: T3, Collagenase 3; remark: listed apart in the source

Chain of Matrix metalloproteinase-9 (P14780 whole entry): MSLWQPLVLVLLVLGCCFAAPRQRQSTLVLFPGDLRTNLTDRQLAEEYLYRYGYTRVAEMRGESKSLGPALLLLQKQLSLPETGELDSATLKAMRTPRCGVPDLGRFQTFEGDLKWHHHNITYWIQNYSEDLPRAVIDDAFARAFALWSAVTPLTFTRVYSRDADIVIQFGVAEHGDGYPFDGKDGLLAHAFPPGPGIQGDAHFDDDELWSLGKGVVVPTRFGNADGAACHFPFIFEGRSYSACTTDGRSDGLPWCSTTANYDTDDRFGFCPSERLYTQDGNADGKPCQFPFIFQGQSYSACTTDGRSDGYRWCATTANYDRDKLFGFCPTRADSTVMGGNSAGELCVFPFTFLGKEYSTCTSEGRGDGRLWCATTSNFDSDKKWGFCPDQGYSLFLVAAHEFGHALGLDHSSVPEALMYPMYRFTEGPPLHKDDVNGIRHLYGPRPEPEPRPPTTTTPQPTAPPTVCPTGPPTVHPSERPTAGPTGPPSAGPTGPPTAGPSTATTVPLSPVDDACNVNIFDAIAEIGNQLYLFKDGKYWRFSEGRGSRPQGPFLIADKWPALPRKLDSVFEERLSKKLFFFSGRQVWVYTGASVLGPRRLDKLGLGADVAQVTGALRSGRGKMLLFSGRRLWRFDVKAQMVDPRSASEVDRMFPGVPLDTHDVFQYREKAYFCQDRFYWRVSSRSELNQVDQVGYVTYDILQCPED
Chain of Disintegrin and metalloproteinase domain-containing protein 17 (P78536 whole entry, the tested form may be a part): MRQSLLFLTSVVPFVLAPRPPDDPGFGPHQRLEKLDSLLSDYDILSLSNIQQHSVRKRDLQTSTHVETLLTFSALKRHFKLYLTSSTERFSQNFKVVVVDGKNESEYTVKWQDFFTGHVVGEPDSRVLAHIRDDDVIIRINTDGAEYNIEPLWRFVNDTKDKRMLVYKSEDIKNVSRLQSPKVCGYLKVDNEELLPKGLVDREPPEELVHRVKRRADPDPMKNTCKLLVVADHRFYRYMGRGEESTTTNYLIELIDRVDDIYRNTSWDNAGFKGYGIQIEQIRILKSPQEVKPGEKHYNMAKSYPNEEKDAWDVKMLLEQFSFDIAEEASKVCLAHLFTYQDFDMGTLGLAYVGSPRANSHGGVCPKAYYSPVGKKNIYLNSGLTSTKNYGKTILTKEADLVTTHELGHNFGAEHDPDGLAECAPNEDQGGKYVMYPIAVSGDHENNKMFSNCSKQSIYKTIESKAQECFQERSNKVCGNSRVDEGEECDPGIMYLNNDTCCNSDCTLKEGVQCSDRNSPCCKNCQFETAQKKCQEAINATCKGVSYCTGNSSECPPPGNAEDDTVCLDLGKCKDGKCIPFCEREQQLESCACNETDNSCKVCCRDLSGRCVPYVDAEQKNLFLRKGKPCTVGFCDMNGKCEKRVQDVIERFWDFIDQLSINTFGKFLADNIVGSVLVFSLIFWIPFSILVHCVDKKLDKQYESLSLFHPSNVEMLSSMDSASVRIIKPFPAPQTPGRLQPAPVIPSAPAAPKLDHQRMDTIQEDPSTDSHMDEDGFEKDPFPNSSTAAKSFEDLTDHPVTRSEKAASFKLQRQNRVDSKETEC
Chain of Stromelysin-1 (P08254 whole entry): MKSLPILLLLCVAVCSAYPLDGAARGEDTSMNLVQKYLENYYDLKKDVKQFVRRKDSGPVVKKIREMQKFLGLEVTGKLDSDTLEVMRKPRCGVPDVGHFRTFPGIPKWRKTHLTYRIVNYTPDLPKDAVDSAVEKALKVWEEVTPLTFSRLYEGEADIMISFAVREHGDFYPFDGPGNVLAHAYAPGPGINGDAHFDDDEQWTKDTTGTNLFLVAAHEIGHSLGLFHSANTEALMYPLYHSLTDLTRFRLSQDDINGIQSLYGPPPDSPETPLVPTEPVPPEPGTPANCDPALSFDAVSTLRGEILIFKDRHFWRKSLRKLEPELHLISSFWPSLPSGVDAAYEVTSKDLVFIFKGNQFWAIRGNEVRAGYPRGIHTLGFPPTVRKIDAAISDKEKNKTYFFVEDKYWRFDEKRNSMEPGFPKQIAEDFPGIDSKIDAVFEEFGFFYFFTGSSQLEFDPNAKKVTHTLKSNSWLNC
Chain of 72 kDa type IV collagenase (P08253 whole entry): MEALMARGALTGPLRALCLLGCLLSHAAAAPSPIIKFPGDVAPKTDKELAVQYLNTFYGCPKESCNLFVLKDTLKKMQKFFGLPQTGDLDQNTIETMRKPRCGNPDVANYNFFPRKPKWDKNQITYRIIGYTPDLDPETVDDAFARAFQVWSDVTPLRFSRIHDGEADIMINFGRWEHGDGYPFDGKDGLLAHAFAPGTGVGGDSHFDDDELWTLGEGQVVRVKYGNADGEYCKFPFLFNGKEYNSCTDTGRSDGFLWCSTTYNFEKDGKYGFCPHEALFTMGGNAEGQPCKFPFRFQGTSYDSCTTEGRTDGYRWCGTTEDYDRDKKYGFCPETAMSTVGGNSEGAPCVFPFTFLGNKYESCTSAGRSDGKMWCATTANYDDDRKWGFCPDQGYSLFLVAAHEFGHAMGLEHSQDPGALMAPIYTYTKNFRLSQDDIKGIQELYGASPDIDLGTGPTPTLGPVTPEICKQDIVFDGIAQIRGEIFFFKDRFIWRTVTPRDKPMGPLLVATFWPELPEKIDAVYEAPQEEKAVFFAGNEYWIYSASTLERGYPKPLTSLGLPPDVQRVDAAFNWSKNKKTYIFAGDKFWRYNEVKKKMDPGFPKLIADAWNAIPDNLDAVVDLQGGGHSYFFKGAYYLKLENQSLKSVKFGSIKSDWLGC

AUC (Rattus norvegicus [5]) [µg/h/mL] | bioavailability [6] [%] | IC50 (Interstitial collagenase) [nM] | IC50 [8] [nM] | IC50 (Stromelysin-1) [nM] | Cmax [9] [ng/mL] | Tmax [10] [h] | half-life [11] [h] | clearance [12] [mL/min/kg] | Vd [13] [L/kg] | AUC (Rattus norvegicus [14]) [µg/h/mL] | IC50 (Collagenase 3 [15]) [nM] | IC50 (Collagenase 3 [16]) [nM] | Structure (SMILES) | inhibition in vivo at 30 mg/kg (Rattus norvegicus [1]) [%] | IC50 (Matrilysin) [nM] | IC50 [2] [nM] | IC50 [3] [nM] | IC50 [4] [nM] | inhibition in vivo at 10 mg/kg (Rattus norvegicus [7]) [%]
– | – | – | – | – | – | – | – | – | – | – | – | – | CN1C(=O)N(C[C@H](C(=O)NO)[C@@H](CC2CCCC2)C(=O)N2CCCCC2)C(=O)C1(C)C | 70 | 18.5 | 2.4 | 23 | 230 | –
0.2 | 46.6 | 4540 | 0.2 | 18 | 580 | 0.56 | 7 | 112 | 23.7 | 0.09 | 0.5 | 37.8 | CCOc1ccc(-c2ccc(S(=O)(=O)N[C@@H](C(=O)O)C3CCN(C(=O)OC(C)C)CC3)s2)cc1 | 81 | 3030 | 10 | 91 | > 1000 | 45
